This note sets out measurements from patent publication US20240109881A1, “Heteroaryl Compounds as Ligand Directed Degraders of IRAK4” (Bristol-Myers Squibb Company, priority 2022, published 2024).

Each structure is given as a SMILES string.

The assay addresses T1, IRAK4 (Homo sapiens, UniProt Q9NWZ3).
T1 construct: endogenous in cells; host or cells: THP-1 cells
T1 sequence (Q9NWZ3 1-460): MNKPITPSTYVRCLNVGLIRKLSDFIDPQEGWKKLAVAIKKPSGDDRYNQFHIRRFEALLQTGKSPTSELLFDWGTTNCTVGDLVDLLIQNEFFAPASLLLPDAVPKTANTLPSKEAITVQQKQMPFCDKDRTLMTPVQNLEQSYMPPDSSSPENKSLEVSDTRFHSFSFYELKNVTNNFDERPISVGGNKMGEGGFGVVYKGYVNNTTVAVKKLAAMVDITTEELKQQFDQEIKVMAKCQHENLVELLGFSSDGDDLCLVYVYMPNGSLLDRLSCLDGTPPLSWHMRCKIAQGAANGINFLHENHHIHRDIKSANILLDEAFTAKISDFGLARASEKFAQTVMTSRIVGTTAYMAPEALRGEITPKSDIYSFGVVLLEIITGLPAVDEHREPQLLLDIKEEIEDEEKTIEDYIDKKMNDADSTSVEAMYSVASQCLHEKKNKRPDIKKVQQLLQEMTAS
The assay is described as follows: ALE THP1 HTRF (Advanced Lipoxidation End Product THP1 Homogeneous Time Resolved Fluorescence). In kind it is cell-based. The settings on record: THP1 cells. The protocol: For Homogenous Time Resolved Fluorescence (HTRF) assays, a Cisbio HTRF kit was used, which included: Lysis Buffer #1 4×, Blocking Reagent #3 100×, 20× Antibody 1 (Anti-IRAK4 d2), 20× Antibody 2 (Anti-IRAK4 k), and Detection Buffer.
4× Lysis Buffer was stored at 4° C. For use as 1× Lysis buffer, the 4× solution was diluted with de-ionized water (distilled water, Gibco Cat. #15230279) and 100× Blocking Reagent in a 1:3:0.04 volume ratio.
20× Antibody Solution aliquots were stored in −80° C. and the Detection Buffer was stored in 4° C. For use as a 1× Antibody Solution, the 20× Antibody Solution aliquot was diluted with Detection Buffer in a 1:19 volume ratio.
Cells were lysed at room temperature for 45 min with shaking. A BCA protein assay was performed and normalization was conducted to the desired total protein concentration with 1× lysis buffer. Next, 1× Antibody Solutions were prepared by adding 380 μL Detection Buffer to 20 μL 20× Antibody Solution aliquots and mixing well. 1× Antibody Solutions were combined 1:1 and briefly vortexed. For control wells, 20 μL 1× anti IRAK4-k Antibody Solution was saved. The 384-well plate (ProxiPlate-384 Plus, Perkin Elmer Cat. #6008289) was loaded by adding 4 μL of the mixed Antibody Solution to empty wells using a single channel repeater. Using a multi-channel repeater, 16 μL lysate was added per well, and any bubbles that were formed were popped with 20 μL pipette tips and Kimwipe edges. In column 10, triplicates of each control was prepared. In wells A10, B10, and C10, buffer control was prepared by adding 16 μL Lysis Buffer and 4 μL Detection Buffer. In wells D10, E10, and F10, cryptate control was prepared by adding 16 μL Lysis Buffer, 2 μL Detection Buffer, and 2 μL 1× anti IRAK4-k Antibody Solution. In wells G10, H10, and I10, a negative control was prepared by adding 16 μL Lysis Buffer and 4 μL mixed Antibody Solution. The plate was sealed with a clear seal and covered with an aluminum lid. The plate was spun down at 800 g for 5 min and incubated in the dark at room temperature overnight. The next day, the plate was spun down at 800 g for 5 min. The samples were analyzed by a plate reader (Envision, PerkinElmer) using the Desnor 384 HTRF program.
(In TR-FRET formats the signal depends on donor and acceptor labels being close together.)
What is called EC50 is the midpoint of the concentration-response curve. For `N#Cc1cnc2c(cnn2-c2cc(NC3CCCC3)c(-c3cn([C@H]4CC[C@H](CN5CCN(CC(=O)Nc6ccc(C7CCC(=O)NC7=O)cc6)CC5)CC4)nn3)cn2)c1` (stereo partly drawn) [P-40, 2-(4-(((1r,4r)-4-(4-(6-(5-Cyano-1H-pyrazolo[3,4-b]pyridin-1-yl)-4-(cyclopentylamino)pyridin-3-yl)-1H-1,2,3-triazol-1-yl)cyclohexyl)methyl)piperazin-1-yl)-N-(4-(2,6-dioxopiperidin-3-yl)phenyl)acetamide], the “ALE THP1 HTRF YMIN” value is recorded as 20.0% and the midpoint of the response, the EC50, lay at 276 nM.
In the case of `C[C@H](C#N)Nc1cc(-n2ncc3cc(C#N)cnc32)ncc1C(=O)N[C@H]1CC[C@H](CCN2[C@@H](C)CN(c3ccc(C4CCC(=O)NC4=O)cc3)C[C@@H]2C)CC1` (stereo partly drawn) [P-149], the “ALE THP1 HTRF YMIN” value is 7.1% and the half-maximal effective concentration (EC50) turned out to be 4 nM.
`N#Cc1cnn2c(-c3cc(NC4CC4)c(C(=O)N[C@H]4CC[C@H](CCN5CCN(c6ccc(C7CCC(=O)NC7=O)cc6)CC5)CC4)cn3)cnc2c1` (stereo partly drawn) [P-123]: the “ALE THP1 HTRF YMIN” value worked out at 24.4% and the midpoint of the response, the EC50, lay at 62 nM.
In the same order, the values of `O=C1CCC(N2C(=O)c3ccc(N4CCN(C(=O)C5CCC(NC(=O)c6cnc(Nc7ccn8nccc8n7)cc6NC6CCCC6)CC5)CC4)cc3C2=O)C(=O)N1` (stereo not drawn) [P-7] are 30.8% and 37 nM.
Take `N#Cc1cnc2c(cnn2-c2cc(NC3CC3)c(C(=O)NC3CCC(CCN4CCN(c5ccc(C6CCC(=O)NC6=O)c(Cl)c5)CC4)CC3)cn2)c1` (stereo not drawn) [P-84]: the “ALE THP1 HTRF YMIN” value stood at 9.7% and a half-maximal response (EC50) required 35 nM.
On to `N#Cc1cnc2c(cnn2-c2cc(NC3CC3)c(C(=O)NC3CCC(CCN4CCN(c5ccc([C@@H]6CCC(=O)NC6=O)cc5)CC4)CC3)cn2)c1` (stereo partly drawn) [P-96], for which the “ALE THP1 HTRF YMIN” value was 8.5% and a half-maximal response (EC50) required 4 nM.
Take `C[C@H]1CN(c2ccc3c(c2)C(=O)N(C2CCC(=O)NC2=O)C3=O)CCN1C(=O)C1CCC(NC(=O)c2cnc(Nc3ccc4ncsc4c3)cc2NC2CCCC2)CC1` (stereo partly drawn) [P-8]: the “ALE THP1 HTRF YMIN” value worked out at 40.8% and the EC50 is 27 nM.
Consider `COc1cc(N2C[C@H](C)N(CC[C@H]3CC[C@H](NC(=O)c4cnc(-n5ncc6cc(C#N)cnc65)cc4N[C@H](C)C#N)CC3)[C@@H](C)C2)ccc1C1CCC(=O)NC1=O` (stereo partly drawn) [P-153], for which the “ALE THP1 HTRF YMIN” value was determined as 4.5% and the EC50 is 17 nM.
As to `N#Cc1cnc2c(cnn2-c2cc(NC3CCCC3)c(C(=O)N[C@H]3CC[C@H](CN4CCN(c5ccc6c(c5)C(=O)N(C5CCC(=O)NC5=O)C6)CC4)CC3)cn2)c1` (stereo partly drawn) [P-24], the “ALE THP1 HTRF YMIN” value is reported as 35.3% and the half-maximal effective concentration (EC50) stood at 324 nM.
In the same order, the values of `C[C@H]1CN(c2ccc(C3CCC(=O)NC3=O)cc2)C[C@H](C)N1CCC1CCC(NC(=O)c2cnc(-n3ncc4cc(C#N)cnc43)cc2NC2CCCC2)CC1` (stereo partly drawn) [P-67] are 9.3% and 34 nM.
The matching figures for `N#Cc1cnc2c(cnn2-c2cc(NC3CC3)c(C(=O)N[C@H]3CC[C@H](CCN4CCC(c5ccc(C6(F)CCC(=O)NC6=O)cc5)CC4)CC3)cn2)c1` (single isomer, unassigned) [P-125]: 9.8% and 10 nM.
In the same order, the values of `N#Cc1cnc2c(cnn2-c2cc(NC3CCCC3)c(C(=O)N[C@H]3CC[C@H](CN4CCC(COc5ccc(C6CCC(=O)NC6=O)cc5)CC4)CC3)cn2)c1` (stereo partly drawn) [P-69] are 15.4% and 417 nM.
Consider `C[C@H](C#N)Nc1cc(-c2cnc3cc(C#N)cnn23)ncc1C(=O)N[C@H]1CC[C@H](CCN2CCN(c3ccc(C4CCC(=O)NC4=O)cc3)CC2)CC1` (stereo partly drawn) [P-147], for which the “ALE THP1 HTRF YMIN” value was determined as 9.0% and the concentration giving a half-maximal response (EC50) amounted to 19 nM.
In the same order, the values of `O=C1CCC(N2C(=O)c3ccc(N4CCN(C(=O)C5CCC(NC(=O)c6cnc(Nc7ccc8ncsc8c7)cc6NC6CCCC6)CC5)CC4)cc3C2=O)C(=O)N1` (stereo not drawn) [P-2] are 32.7% and 97 nM.
As to `C[C@@H]1CN(CC[C@H]2CC[C@H](NC(=O)c3cnc(-n4ncc5cc(C#N)cnc54)cc3NC3CC3)CC2)CCN1c1ccc(C2CCC(=O)NC2=O)cc1` (stereo partly drawn) [P-120], the “ALE THP1 HTRF YMIN” value is reported as 7.2% and the EC50 worked out at 15 nM.
As for `O=C1CCC(N2C(=O)c3ccc(N4CCN(C[C@H]5CC[C@H](NC(=O)c6cnc(Nc7ccc8ncsc8c7)cc6NC6CCCC6)CC5)CC4)cc3C2=O)C(=O)N1` (stereo partly drawn) [P-3, 6-(1,3-benzothiazol-6-ylamino)-4-(cyclopentylamino)-N-[4-[[4-[2-(2,6-dioxo-3-piperidyl)-1,3-dioxo-isoindolin-5-yl]piperazin-1-yl]methyl]cyclohexyl]pyridine-3-carboxamide], the “ALE THP1 HTRF YMIN” value was determined as 35.6% and the EC50 came to 273 nM.
`C[C@H](C#N)Nc1cc(-n2ncc3cc(C#N)cnc32)ncc1C(=O)N[C@H]1CC[C@H](CCN2CCC(c3ccc(C4CCC(=O)NC4=O)cc3)CC2)CC1` (stereo partly drawn) [P-143]: the “ALE THP1 HTRF YMIN” value was found to be 6.5% and the EC50 was determined as 4 nM.
The matching figures for `CC(C)CNc1cc(-n2ncc3cc(C#N)cnc32)ncc1C(=O)NC1CCC(CCN2CCN(c3ccc(C4CCC(=O)NC4=O)cc3)CC2)CC1` (stereo not drawn) [P-64]: 10.1% and 30 nM.
In the same order, the values of `CC(C)(C)Nc1cc(-n2ncc3cc(C#N)cnc32)ncc1C(=O)NC1CCC(CCN2CCN(c3ccc(C4CCC(=O)NC4=O)cc3)CC2)CC1` (stereo not drawn) [P-83] are 8.1% and 47 nM.
In the same order, the values of `N#Cc1cnc2c(cnn2-c2cc(NC3CCCC3)c(C(=O)NC3CCC(CN4CC5(CCN(c6ccc(C7CCC(=O)NC7=O)cc6)CC5)C4)CC3)cn2)c1` (stereo not drawn) [P-39] are 24.3% and 198 nM.
For the compound `N#Cc1cnc2c(cnn2-c2cc(NC3CCCC3)c(C(=O)NC3CCC(CCN4CCN(c5ccc(C6CCC(=O)NC6=O)cc5)CC4)CC3)cn2)c1` (stereo not drawn) [P-35], the “ALE THP1 HTRF YMIN” value was 8.4% and the EC50 stood at 41 nM.
The matching figures for `N#Cc1cnc2c(cnn2-c2cc(NC3CCOCC3)c(C(=O)NC3CCC(CCN4CCN(c5ccc(C6CCC(=O)NC6=O)cc5)CC4)CC3)cn2)c1` (stereo not drawn) [P-74]: 9.4% and 8 nM.
In the same order, the values of `C[C@@H]1CN(c2ccc(C3CCC(=O)NC3=O)cc2)CCN1CCC1CCC(NC(=O)c2cnc(-n3ncc4cc(C#N)cnc43)cc2NC2CCCC2)CC1` (stereo partly drawn) [P-59] are 8.5% and 107 nM.
The matching figures for `COc1cc(C2CCC(=O)NC2=O)ccc1N1CCN(CCC2CCC(NC(=O)c3cnc(-n4ncc5cc(C#N)cnc54)cc3NC3CC3)CC2)CC1` (stereo not drawn) [P-80]: 7.3% and 26 nM.
Take `N#Cc1cnc2c(c1)c(F)cn2-c1cc(NC2CC2)c(C(=O)NC2CCC(CCN3CCN(c4ccc(C5CCC(=O)NC5=O)cc4)CC3)CC2)cn1` (stereo not drawn) [P-101]: the “ALE THP1 HTRF YMIN” value is 24.6% and the EC50 is 92 nM.
Consider `C[C@H](C#N)Nc1cc(-n2ncc3cc(C#N)c(N)nc32)ncc1C(=O)N[C@H]1CC[C@H](CCN2CCC(c3ccc(C4CCC(=O)NC4=O)cc3)CC2)CC1` (stereo partly drawn) [P-146], for which the “ALE THP1 HTRF YMIN” value was 8.0% and the half-maximal effective concentration (EC50) was 1 nM.
In the same order, the values of `N#Cc1cnc2c(cnn2-c2cc(NC3CC3)c(C(=O)NC3CCC(CCN4CCC(c5ccc(C6CCC(=O)NC6=O)cc5)CC4)CC3)cn2)c1` (stereo not drawn) [P-72] are 9.5% and 5 nM.
